{"source": "patent US20100179188A1", "about": "“NITROXIDE RADICAL AS TREATMENT FOR NEURODEGENERATION” (Office of Technology Transfer, NIH, priority 2007, published 2010)", "key": {"IRP1 [1]": {"target": "T1, IRP1 (Mus musculus, UniProt P28271)", "T1 sequence (P28271 1-889)": "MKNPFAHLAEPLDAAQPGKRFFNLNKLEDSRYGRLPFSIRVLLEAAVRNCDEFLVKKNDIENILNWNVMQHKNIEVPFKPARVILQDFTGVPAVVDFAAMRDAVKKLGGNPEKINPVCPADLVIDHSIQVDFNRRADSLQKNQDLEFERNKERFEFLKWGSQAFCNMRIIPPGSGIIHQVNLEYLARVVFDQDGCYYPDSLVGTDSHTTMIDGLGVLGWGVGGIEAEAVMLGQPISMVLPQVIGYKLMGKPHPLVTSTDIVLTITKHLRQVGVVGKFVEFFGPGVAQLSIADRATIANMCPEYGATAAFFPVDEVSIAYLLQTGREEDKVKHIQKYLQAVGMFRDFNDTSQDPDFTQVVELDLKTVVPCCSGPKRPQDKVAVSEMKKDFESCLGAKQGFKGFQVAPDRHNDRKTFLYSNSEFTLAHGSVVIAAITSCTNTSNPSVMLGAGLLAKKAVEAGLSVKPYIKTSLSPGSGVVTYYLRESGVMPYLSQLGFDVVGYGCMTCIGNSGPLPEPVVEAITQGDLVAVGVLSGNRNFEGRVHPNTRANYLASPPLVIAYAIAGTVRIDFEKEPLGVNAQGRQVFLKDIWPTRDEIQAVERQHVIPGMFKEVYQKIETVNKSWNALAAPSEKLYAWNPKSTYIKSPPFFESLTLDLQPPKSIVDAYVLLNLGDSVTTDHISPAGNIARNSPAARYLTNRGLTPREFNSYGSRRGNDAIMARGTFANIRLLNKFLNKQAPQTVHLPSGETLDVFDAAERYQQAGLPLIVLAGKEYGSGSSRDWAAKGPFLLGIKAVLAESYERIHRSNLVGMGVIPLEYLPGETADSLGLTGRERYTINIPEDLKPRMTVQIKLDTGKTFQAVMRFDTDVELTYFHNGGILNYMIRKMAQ", "assay": "Gel-shift of IRP1 in wild type and IRP2−/− mouse embryonic fibroblasts after Tempo1 or DFO and washout", "assay_type": "cell-based", "set-up": "Embryonic fibroblasts of 13-day old embryos were isolated from wild type, IRP1−/− mice and IRP2−/− mice; endogenous in cells; host or cells: mouse embryonic fibroblasts (wild type and IRP2−/−)", "protocol": "Cells: Embryonic fibroblasts of 13-day old embryos were isolated from wild type, IRP1−/− mice and IRP2−/− mice as described in LaVaute et al. supra. Myc-tagged HEK 293 Tet-on cell line, in which IRP2 expression was inducible, was prepared and cultured as described Bourdon et al., Blood Cells Mol Dis, 31, 247-255 (2003). Erythroblasts were harvested from bone marrow and purified as described in Cooperman et al., Blood, 106, 1084-1091 (2005).\nRNA mobility shift assays: Gel retardation assays were performed as described in Meyron-Holtz et al., EMBO J, 23, 386-395 (2004). Tissue lysates were prepared in an anaerobic chamber as described above in oxygen-depleted lysis buffer containing 10 mM HEPES (pH 7.2), 3 mM MgC12, 40 mM KCl, 5% glycerol, 0.2% Nonidet P-40, 5 mM DTT, 1 mM AEBSF, 10 μg/ml. Leupeptin and complete TM EDTA free protease inhibitor cocktail (Roche Applied Science, Indiana). Lysate (x μl) containing 10 μg of total protein was added to (12.5−x) μl of bandshift buffer containing 25 mM Tris-HCl (pH 7.5) and 40 mM KCl. The samples were incubated for 5 min at room temperature (RT) with 12.5 μl of a reaction cocktail containing 20% glycerol, 0.2 U/μl Super RNAsine (Ambion, Tex.), 0.6 μg/μl yeast t-RNA, 5 mM DTT and 20 nM 32P-labelled IRE from human ferritin H-chain gene in 25 mM Tris-HCl (pH 7.5) and 40 mM KCl. A measure of 20 μl of this reaction mixture was loaded into a 10% acrylamide/TBE gel, which was run at 200 V for 2.15 h, and then the gel was fixed, dried and exposed for autoradiography.\nTo determine whether the effect of Tempo1 on IRP1 activity was kinetically consistent with oxidative disassembly of the iron sulfur cluster, the effect of Tempo1 on aconitase activity was compared to that of the iron chelator, deferiprone (DFO), which activates IRE-binding activity of IRP1 by limiting de novo synthesis and repair of the iron sulfur cluster in IRP1. […] Recovery of aconitase activity was assessed in wild type and IRP2−/− cells."}, "IRP1 [2]": {"target": "T1, IRP1", "assay": "IRE binding activity of IRP1 in brain-region lysates of IRP2−/− mice (gel-shift)", "assay_type": "in vivo", "set-up": "Lysates made from various brain regions of IRP2−/− mice; from tissue; host or cells: mouse brain (cerebellum, forebrain, brain-stem) lysates", "conditions": "lysates from cerebellum, brain-stem and forebrain of IRP2−/− mice, Tempo1 diet vs control diet", "protocol": "Diet: The mice were weaned 3-4 weeks after their birth. Immediately after weaning, mice were maintained on either a Tempo1-supplemented or control diet. In the Tempo1-supplemented diet, powdered Tempo1 was uniformly mixed with bacon-flavored mouse chow by a “cold press” technique (Bio-Serv, Frenchtown, N.J., USA) at a concentration of 10 mg/g of food. Bacon-flavored chow without Tempo1 was used as the control diet.\nTissue and lysate preparation: Animals were euthanized and tissues were frozen in liquid nitrogen immediately after harvesting, and stored at −80° C. under argon. Experiments were performed on tissues that were pulverized in liquid N2-cooled mortars in an anaerobic chamber, and then lysed in lysis buffer that was deaerated by cyclic freezethaw and air-removal with argon. […]\nLysates made from various brain regions of IRP2−/− mice that were maintained on a control diet or on a Tempo1-supplemented diet were analyzed for IRE binding activity of IRP1 and for TfR1, IRP1, and actin protein levels by gel-shift assay and Western blot. […] FIG. 3b is a quantification of the results as intensity of the bands relative to the control, represented here as 100%. Quantification was performed with the IQMac (IRP1 activity) or NIH Image (protein levels) program. Error bars represent the standard deviation calculated from the results of two different sets of animals."}}, "data": [{"smiles": "CC1(C)CC(O)CC(C)(C)N1[O]", "note": "[Tempo1]", "values": [{"measurement": "time to reversal of the activation of IRE-binding activity after removal", "setting": "IRP1 [1]; mouse embryonic fibroblasts, 16 hours treatment, then fresh unsupplemented media", "result": "≤ 2", "unit": "h"}, {"measurement": "IRE-binding activity of IRP1", "setting": "IRP1 [1]; wild type and IRP2−/− mouse embryonic fibroblasts treated 16 hours", "result": "activated"}, {"measurement": "IRE-binding activity", "setting": "IRP1 [2]", "result": "markedly increased"}]}]}
